Experimental data from patent US20240251788A1, “HERBICIDE/SAFENER COMBINATION BASED ON SAFENERS FROM THE CLASS OF SUBSTITUTED [(1,5-DIPHENYL-1H-1,2,4-TRIAZOL-3-YL)OXY]ACETIC ACIDS AND THEIR SALTS” (Bayer Aktiengesellschaft, priority 2021, published 2024).

Key:
[1] = test system: summer barley crop plant (HORVS: cv. Quench); test: Reduction in herbicide damage to summer barley by safener, greenhouse post-emergence application, visual scoring; assay type: in vivo; parameters: key to Reduction in the damage by safener (difference): difference in % visual damage, 0-100% scale vs untreated plants
Procedure: (§1) The seeds of the crop plants to be treated are laid out in soil in woodfiber pots (diameter ˜ 7 cm), covered with soil and grown in a greenhouse under good conditions for germination and growth. The trial plants were treated at the early leaf stage (BBCH10-BBCH12).
The herbicides used (component B) were used in the following formulations: • B2.81: WP • B2.85: WP • B2.92: WP • Clomazone: WP • Ethofumesate: WP • Flufenacet: SC • Fluroxypyr: EC • Saflufenacil: WP • Thiencarbazone-methyl: WP • Iodosulfuron-methyl-sodium: WP • Bifenox: WP • Glyphosate potassium salt: SL • Topramezone: WP
(§2) The dose of the respective herbicides was chosen here such that it causes an average degree of visually apparent damage (min. 20%, max. 75%) compared to untreated crop plants at the evaluation time on a control group of crop plants without safener treatment that were included in the same trial.
(§3) In the respective herbicide/safener combinations, the safeners (component A) in the form of wettable powders (WP) were added in the dose specified; in these cases, herbicide and safener are thus applied as a mixture.
(§4) Application was effected in each case on to the above-ground parts of the plant, at a water application rate corresponding to 300 l/ha and with addition of wetting agent (Mero, 1.5 l/h a).
In the applications that contained pinoxaden or topramezone, the herbicidal effect was enhanced by additionally adding ammonium sulfate (2 kg/ha).
(§5) After application, the plants were cultivated under good growth conditions in a greenhouse. On account of the different mechanisms of action of the herbicides used, the damaging effect of the herbicides was fully manifested at different times depending on the herbicide, and this in turn forms the basis for assessment of the safener action in the mixtures. Therefore, the damage was scored visually, depending on the herbicide/mixture, between 11 and 21 days after application.
(§6) The damage effect was assessed visually on a scale of 0-100% by comparison with untreated control plants, and averaged over 2 repeats per treatment.

[2] = test system: summer wheat crop plant (TRZAS; cv. Triso); test: Reduction in herbicide damage to summer wheat by safener, greenhouse post-emergence application, visual scoring; assay type: in vivo; parameters: key to Reduction in the damage by safener (difference): difference in % visual damage (0-100% scale vs untreated) due to safener
Procedure: as §1
The herbicides used (component B) were used in the following formulations: • B2.81: WP • B2.85: WP • B2.92: WP • Cinmethylin: EC • Clomazone: WP • Ethofumesate: WP • Flufenacet: SC • Pinoxaden: WP • Saflufenacil: WP • Bicyclopyrone: WP • Picloram: WP • Metazachlor: SC • Flumioxazin: WP • Glyphosate potassium salt: SL • Topramezone: WP
as §2, §3, §4
In the applications that contained pinoxaden, bicyclopyrone or topramezone, the herbicidal effect was enhanced by additionally adding ammonium sulfate (2 kg/ha).
as §5, §6

[3] = summer barley (HORVS), herbicide B2.68 (thiencarbazone-methyl) 30 g a.i./ha + safener 100 g a.i./ha
[4] = summer barley (HORVS), herbicide B2.81 15 g a.i./ha + safener 100 g a.i./ha
[5] = summer barley (HORVS), herbicide B2.85 5 g a.i./ha + safener 100 g a.i./ha
[6] = summer barley (HORVS), herbicide B2.92 5 g a.i./ha + safener 100 g a.i./ha
[7] = summer barley (HORVS), herbicide B5.14 (clomazone) 200 g a.i./ha + safener 100 g a.i./ha
[8] = summer barley (HORVS), herbicide B5.21 (ethofumesate) 2000 g a.i./ha + safener 100 g a.i./ha
[9] = summer barley (HORVS), herbicide B6.4 (fluroxypyr) 500 g a.i./ha + safener 100 g a.i./ha
[10] = summer barley (HORVS), herbicide B9.10 (saflufenacil) 20 g a.i./ha + safener 100 g a.i./ha
[11] = summer wheat (TRZAS), herbicide B1.8 (pinoxaden) 200 g a.i./ha + safener 100 g a.i./ha
[12] = summer wheat (TRZAS), herbicide B2.81 15 g a.i./ha + safener 100 g a.i./ha
[13] = summer wheat (TRZAS), herbicide B2.85 5 g a.i./ha + safener 100 g a.i./ha
[14] = summer wheat (TRZAS), herbicide B2.92 5 g a.i./ha + safener 100 g a.i./ha
[15] = summer wheat (TRZAS), herbicide B5.14 (clomazone) 200 g a.i./ha + safener 100 g a.i./ha
[16] = summer wheat (TRZAS), herbicide B5.21 (ethofumesate) 2000 g a.i./ha + safener 100 g a.i./ha
[17] = summer wheat (TRZAS), herbicide B9.10 (saflufenacil) 10 g a.i./ha + safener 100 g a.i./ha
[18] = summer wheat (TRZAS), herbicide B9.10 (saflufenacil) 20 g a.i./ha + safener 100 g a.i./ha

Compound: COC(=O)COc1nc(-c2ccc(Cl)cc2F)n(-c2ccc(Cl)cc2F)n1 [Compound A1, methyl {[1,5-bis(4-chloro-2-fluorophenyl)-1H-1,2,4-triazol-3-yl]oxy}acetate]
- Reduction in the damage by safener (difference) [1, 3]: 30
- Reduction in the damage by safener (in %) [1, 3]: 100%
- Reduction in the damage by safener (difference) [1, 4]: 70
- Reduction in the damage by safener (in %) [1, 4]: 100%
- Reduction in the damage by safener (difference) [1, 5]: 50
- Reduction in the damage by safener (in %) [1, 5]: 83%
- Reduction in the damage by safener (difference) [1, 6]: 65
- Reduction in the damage by safener (in %) [1, 6]: 100%
- Reduction in the damage by safener (difference) [1, 7]: 30
- Reduction in the damage by safener (in %) [1, 7]: 75%
- Reduction in the damage by safener (difference) [1, 8]: 60
- Reduction in the damage by safener (in %) [1, 8]: 100%
- Reduction in the damage by safener (difference) [1, 9]: 20
- Reduction in the damage by safener (in %) [1, 9]: 100%
- Reduction in the damage by safener (difference) [1, 10]: 20
- Reduction in the damage by safener (in %) [1, 10]: 50%
- Reduction in the damage by safener (difference) [2, 11]: 25
- Reduction in the damage by safener (in %) [2, 11]: 71%
- Reduction in the damage by safener (difference) [2, 12]: 70
- Reduction in the damage by safener (in %) [2, 12]: 100%
- Reduction in the damage by safener (difference) [2, 13]: 60
- Reduction in the damage by safener (in %) [2, 13]: 100%
- Reduction in the damage by safener (difference) [2, 14]: 60
- Reduction in the damage by safener (in %) [2, 14]: 100%
- Reduction in the damage by safener (difference) [2, 15]: 20
- Reduction in the damage by safener (in %) [2, 15]: 50%
- Reduction in the damage by safener (difference) [2, 16]: 70
- Reduction in the damage by safener (in %) [2, 16]: 100%
- Reduction in the damage by safener (difference) [2, 17]: 15
- Reduction in the damage by safener (in %) [2, 17]: 43%
- Reduction in the damage by safener (difference) [2, 18]: 15
- Reduction in the damage by safener (in %) [2, 18]: 38%

Compound: CCOC1Oc2ccc(OS(C)(=O)=O)cc2C1(C)C (stereo not shown) [Compound B5.21, ethofumesate, reference compound]
- Damage to the plant by the herbicide (in %) ([1]; summer barley (HORVS), herbicide dose 2000 g a.i./ha, without safener): 60%
- Damage to the plant by the herbicide (in %) ([2]; summer wheat (TRZAS), herbicide dose 2000 g a.i./ha, without safener): 70%

Compound: C=C[C@]1(C(=O)N[C@H]2C=C[C@@H](C(=O)OC)C2)CC(c2cc(F)cc(F)c2)=NO1 [Compound B2.85, methyl (1S,4R)-4-[[[(5S)-3-(3,5-difluorophenyl)-5-vinyl-4H-1,2-oxazol-5-yl]carbonyl]amino]cyclopent-2-ene-1-carboxylate]
- Damage to the plant by the herbicide (in %) ([1]; in vivo): 60%
- Damage to the plant by the herbicide (in %) ([2]; in vivo): 60%

Compound: C[C@]1(C(=O)N[C@H]2C=C[C@@H](C(=O)O)C2)CC(c2cc(F)cc(F)c2)=NO1 [Compound B2.92, (1S,4R)-4-[[(5R)-3-(3,5-difluorophenyl)-5-methyl-4H-isoxazole-5-carbonyl]amino]cyclopent-2-ene-1-carboxylic acid]
- Damage to the plant by the herbicide (in %) ([1]; in vivo): 65%
- Damage to the plant by the herbicide (in %) ([2]; in vivo): 60%

Compound: COC(=O)COc1nc(-c2ccc(F)cc2F)n(-c2ccc(Cl)cc2F)n1 [Compound A5, methyl {[1-(4-chloro-2-fluorophenyl)-5-(2,4-difluorophenyl)-1H-1,2,4-triazol-3-yl]oxy}acetate]
- Reduction in the damage by safener (difference) [1, 3]: 30
- Reduction in the damage by safener (in %) [1, 3]: 100%
- Reduction in the damage by safener (difference) [1, 4]: 20
- Reduction in the damage by safener (in %) [1, 4]: 29%
- Reduction in the damage by safener (difference) [1, 5]: 40
- Reduction in the damage by safener (in %) [1, 5]: 67%
- Reduction in the damage by safener (difference) [1, 6]: 50
- Reduction in the damage by safener (in %) [1, 6]: 77%
- Reduction in the damage by safener (difference) [1, 8]: 60
- Reduction in the damage by safener (in %) [1, 8]: 100%
- Reduction in the damage by safener (difference) [1, 9]: 15
- Reduction in the damage by safener (in %) [1, 9]: 75%
- Reduction in the damage by safener (difference) [1, 10]: 15
- Reduction in the damage by safener (in %) [1, 10]: 38%
- Reduction in the damage by safener (difference) [2, 11]: 20
- Reduction in the damage by safener (in %) [2, 11]: 57%
- Reduction in the damage by safener (difference) [2, 12]: 20
- Reduction in the damage by safener (in %) [2, 12]: 29%
- Reduction in the damage by safener (difference) [2, 13]: 50
- Reduction in the damage by safener (in %) [2, 13]: 83%
- Reduction in the damage by safener (difference) [2, 14]: 55
- Reduction in the damage by safener (in %) [2, 14]: 92%
- Reduction in the damage by safener (difference) [2, 15]: 15
- Reduction in the damage by safener (in %) [2, 15]: 38%
- Reduction in the damage by safener (difference) [2, 16]: 70
- Reduction in the damage by safener (in %) [2, 16]: 100%

Compound: CC(C)N(C)S(=O)(=O)NC(=O)c1cc(-n2c(=O)cc(C(F)(F)F)n(C)c2=O)c(F)cc1Cl [Compound B9.10, saflufenacil, reference compound]
- Damage to the plant by the herbicide (in %) ([1]; summer barley (HORVS), herbicide dose 20 g a.i./ha, without safener): 40%
- Damage to the plant by the herbicide (in %) ([2]; summer wheat (TRZAS), herbicide dose 10 g a.i./ha, without safener): 35%
- Damage to the plant by the herbicide (in %) ([2]; summer wheat (TRZAS), herbicide dose 20 g a.i./ha, without safener): 40%

Compound: O=C(O)CNCP(=O)(O)O [Compound B7.5, glyphosate, reference compound]
- Damage to the plant by the herbicide (in %) ([1]; summer barley (HORVS), herbicide dose 400 g a.i./ha, without safener): 60%
- Damage to the plant by the herbicide (in %) ([2]; summer wheat (TRZAS), herbicide dose 400 g a.i./ha, without safener): 45%

Compound: C=C[C@]1(C(=O)N[C@H]2CO[C@@H](C(=O)OC)C2)CC(c2cc(F)cc(F)c2)=NO1 (relative stereo) [Compound B2.81, methyl (2R*,4R*)-4-[[(5S)-3-(3,5-difluorophenyl)-5-vinyl-4H-isoxazole-5-carbonyl]amino]tetrahydrofuran-2-carboxylate]
- Damage to the plant by the herbicide (in %) ([1]; in vivo): 70%
- Damage to the plant by the herbicide (in %) ([2]; in vivo): 70%

Compound: CC1(C)CON(Cc2ccccc2Cl)C1=O [Compound B5.14, clomazone, reference compound]
- Damage to the plant by the herbicide (in %) ([1]; in vivo): 40%
- Damage to the plant by the herbicide (in %) ([2]; in vivo): 40%
